We go through 1 compound from PMC3907542 (PLoS ONE, 2014).

The Ki is a measure of affinity in units of concentration, obtained from inhibition or displacement. A higher Ki goes with weaker binding.

Data set [1] relates to CYP3A. The note with it: Lineweaver-Burk plot, RLMs, nifedipine as substrate.
Procedure: (§1) The preparation of rat liver microsome (RLM) suspensions were performed as previously reported [38]. […] Briefly, the incubation mixtures (total volume 0.2 ml) contained microsomal protein [...
Data set [2] concerns rat plasma proteins. Nature of the data set: Plasma protein binding of nifedipine in vitro with or without baicalin (ultrafiltration). The note with it: double reciprocal plot, baicalin 250-2000 mg/L. It counts as in vitro ADME.
Data set [3] concerns plasma proteins. Also noted: method as in earlier work. The settings on record: plasma protein binding; ref 1 (Tang Y et al); cited from earlier work.
For data set [4], the system named is CYP3A. Nature of the data set: in vitro. The note with it: rat, rat liver microsomes, pH 7.4, probe nifedipine. On the technique in general: Liver microsomes are vesicles of endoplasmic reticulum, rich in cytochrome P450 enzymes.
Procedure: as §1
Data set [5] in a line: Pharmacokinetics of baicalin in rats (plasma Cmax). It counts as in vivo. The settings on record: Sprague Dawley, rat, iv, read-out: C max of baicalin. As for the experimental part: All pharmacokinetic data were obtained from 12 animals.
The concentration of baicalin in the blood samples was determined using a slightly modified high-performance liquid chromatography (HPLC) protocol with UV detection at 278 nm. Briefly, 100 µl methanol was added to 25 µl of the blood sample. […] The quantitation limits of baicalin in the rat plasma were 5.86 mg/L.

Each structure is given as a SMILES string. “And” between values parts separate entries of the source, which are not always exact repeats. Identical values can stand only once. Like-named read-outs stand apart in the source and are kept apart here.

On to `O=C(O)[C@H]1O[C@@H](Oc2cc3oc(-c4ccccc4)cc(=O)c3c(O)c2O)[C@H](O)[C@@H](O)[C@@H]1O` [baicalin, 5,6-Dihydroxy-flavone-7-O-glucuronide], for which the “type of inhibition of CYP3A” value in data set [1] is recorded as “competitive”. Moreover, the “type of interaction between nifedipine and baicalin for rat plasma proteins” value in data set [2] was “competitive”. The “association constant (KA)” value in data set [3] was 121000 L/mol. In addition, the Ki at 30 min in data set [4] is 146 µM and 64.9 µg/mL. In addition, the Cmax is 755 µg/mL in data set [5] (baicalin 0.225 g/kg i.v.) and 1280 µg/mL in data set [5] (baicalin 0.45 g/kg i.v.).
